Earlier results on 3 compounds are cited in US10159714B2, “Compositions, devices and methods of use thereof for the treatment of cancers” (Intarcia Therapeutics, Inc., priority 2011, dated 2018).

For data set [1], the system named is fasting hyperglycemia. To be noted: type 2 diabetic patients.
For data set [2], the system named is prostatic tumors in Noble and Dunning male rats and DMBA-induced mammary tumors in female rats. To be noted: hormone-dependent tumors in rats.
The subject of data set [3] is gonadotropin secretion / testosterone.

Where no end group is shown, it is not given here.

Turning to “GLP-1(7-37) (HAEGTFTSDVSSYLEGQAAKEFIAWLVKGRG; Glucagon-like peptide 1(7-37); UniProt P01275 98-128, looked up) [form of the GLP-1 peptide]”, the “effect on fasting hyperglycemia” value in data set [1] is recorded as “normalize fasting hyperglycemia”.
`CCNC(=O)[C@@H]1CCCN1C(=O)[C@H](CCCNC(=N)N)NC(=O)[C@H](CC(C)C)NC(=O)[C@@H](CC(C)C)NC(=O)[C@H](Cc1ccc(O)cc1)NC(=O)[C@H](CO)NC(=O)[C@H](Cc1c[nH]c2ccccc12)NC(=O)[C@H](Cc1c[nH]cn1)NC(=O)[C@@H]1CCC(=O)N1` [leuprolide acetate]: the tumor growth entry in data set [2] is “inhibition of the growth”. Besides, the “time to decrease of LH, FSH and testosterone after initiation of treatment” value in data set [3] (continuous administration) is recorded as “two to six”. The oral activity entry in data set [3] (in vivo, po) was “not active when given orally”. The testosterone level result in data set [3] (males, continuous administration) is “reduced to castrate levels”.
In the case of “glucagon-like peptide-1 (7-36) amide (HAEGTFTSDVSSYLEGQAAKEFIAWLVKGR-NH2; listed as Homo sapiens) [GLP-1(7-36)amide]”, the “effect on fasting hyperglycemia” value in data set [1] was “normalize fasting hyperglycemia”.
